Test systems include UO-31; HCT-15; 786-0; KM12; M14; NCI-H460; OVCAR-4; MDA-MB-435; SF-539; NCI-H226; NCI-H522; SNB-19; SN12C; A549; HCC 2998; HL-60; RXF 393; A498; OVCAR-8; HT-29.
Common to all, as to assay: inhibition of tumour cell growth, NCI panel, 48 h

Experimental findings from ChEMBL document CHEMBL1201862, “PubChem BioAssay data set” (2004) are described below.

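Test compounds were applied to cells in 96-well plates for 48 hours at 5 doses. Abbreviation: GI50, concentration required for 50% inhibition of growth.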 Calls of active or inactive are those of the source. No stated cut-off is given here; in the data, active = GI50 up to about 1.1 µM and inactive = higher.

In the case of `COC(=O)C(Cc1c(C2Nc3ccccc3C2CC(NC(=O)CNC(C)=O)C(=O)OC)[nH]c2ccccc12)NC(=O)CNC(C)=O` (configuration not stated), the GI50 in the experiment on UO-31 is > 100 µM (inactive); in the experiment with HCT-15, > 100 µM; in the experiment on 786-0, > 100 µM (inactive); in the experiment on KM12, > 100 µM (inactive); with M14, > 100 µM (inactive); in the experiment with NCI-H460, > 100 µM (inactive). Moreover, the GI50 in the experiment with OVCAR-4, in the experiment with MDA-MB-435, with SF-539, in the experiment on NCI-H226, with NCI-H522 and with SNB-19 was > 100 µM (inactive) in each case. Moreover, the GI50 in the experiment with SN12C is > 100 µM (inactive); in the experiment on A549, > 100 µM (inactive); with HCC 2998 it was > 100 µM (inactive); in the experiment with HL-60, > 26.6 µM (inactive); in the experiment with RXF 393 it was > 100 µM (inactive); in the experiment with A498 it was > 100 µM (inactive). The GI50 in the experiment on OVCAR-8 and in the experiment with HT-29 was > 100 µM (inactive) each time.

As to `N#C/C(=C\N1CCNC1=S)C(=O)c1ccc2ccccc2c1`, the GI50 is > 100 µM (inactive) in the experiment with UO-31; > 100 µM in the experiment with HCT-15; > 100 µM (inactive) in the experiment on 786-0; > 100 µM (inactive) in the experiment with KM12; > 100 µM (inactive) in the experiment on M14; > 100 µM (inactive) with NCI-H460. Moreover, the GI50 is 74 µM (inactive) in the experiment on OVCAR-4; 89.1 µM (inactive) with MDA-MB-435; > 100 µM (inactive) in the experiment with SF-539; > 100 µM (inactive) in the experiment with NCI-H226; > 100 µM (inactive) with NCI-H522; > 100 µM (inactive) with SNB-19. In addition, the GI50 in the experiment on SN12C was > 100 µM (inactive); in the experiment on A549 it was > 100 µM (inactive); in the experiment with HCC 2998, > 100 µM (inactive); with HL-60, 7.06 µM (inactive); in the experiment on RXF 393 it was > 100 µM (inactive); in the experiment on A498, > 100 µM (inactive). The GI50 in the experiment with OVCAR-8 and in the experiment with HT-29 was > 100 µM (inactive) throughout.

For the compound `O=C(/C=C/c1cccc(Br)c1)c1ccc(Cl)cc1`, the GI50 was 15.5 µM (inactive) in the experiment with UO-31; 14.8 µM in the experiment with HCT-15; 14.3 µM (inactive) in the experiment on 786-0; 11.8 µM (inactive) in the experiment with KM12; 14.6 µM (inactive) with M14; 16.9 µM (inactive) with NCI-H460. Also, the GI50 was 4.36 µM (inactive) with OVCAR-4; 6.25 µM (inactive) in the experiment on MDA-MB-435; 16.6 µM (inactive) with SF-539; 18.8 µM (inactive) in the experiment on NCI-H226; 13.6 µM (inactive) in the experiment on NCI-H522; 16.3 µM (inactive) in the experiment with SNB-19. The GI50 was 17.2 µM (inactive) with SN12C; 16.8 µM (inactive) in the experiment with A549; 18.8 µM (inactive) in the experiment on HCC 2998; 14.3 µM (inactive) in the experiment with HL-60; 17.8 µM (inactive) in the experiment with RXF 393; 13.3 µM (inactive) with A498. Further, the results for the GI50 with OVCAR-8 and with HT-29 were 17 µM (inactive) and 11.2 µM (inactive), respectively.

Regarding `BC(=O)NC(CC(C)C)C(=O)NCC(=O)NC1c2ccsc2C(=O)C1O.CN(C)C` (configuration not stated), the GI50 in the experiment on UO-31 is > 100 µM (inactive); in the experiment on HCT-15, > 100 µM; with 786-0 it was > 100 µM (inactive); in the experiment on KM12 it was > 100 µM (inactive); with M14, > 100 µM (inactive); in the experiment on NCI-H460, 31.6 µM (inactive). The GI50 in the experiment on OVCAR-4 is > 100 µM (inactive); with MDA-MB-435, > 100 µM (inactive); in the experiment with SF-539, > 100 µM (inactive); with NCI-H226, 95.5 µM (inactive); in the experiment with NCI-H522, > 100 µM (inactive); with SNB-19, > 100 µM (inactive). The GI50 in the experiment with SN12C, in the experiment on A549, in the experiment with HCC 2998, in the experiment with HL-60, with RXF 393 and in the experiment on A498 was > 100 µM (inactive) throughout. Besides, the GI50 with OVCAR-8 and in the experiment with HT-29 was > 100 µM (inactive) throughout.

Turning to `O=C(O)[C@@H]1CSCN1C(=O)[C@@H]1CCC(=S)N1`, the GI50 in the experiment on UO-31 is > 100 µM (inactive); with HCT-15 it was > 100 µM; with 786-0, > 100 µM (inactive); with KM12, > 100 µM (inactive); with M14, > 100 µM (inactive); in the experiment on NCI-H460, > 100 µM (inactive). For the same compound, the GI50 in the experiment on MDA-MB-435, in the experiment with SF-539, with NCI-H226, with NCI-H522, in the experiment with SNB-19 and with SN12C was > 100 µM (inactive) throughout. Besides, the GI50 in the experiment on A549, in the experiment with HCC 2998, with HL-60, with RXF 393, with A498 and with OVCAR-8 was > 100 µM (inactive) throughout. For the same compound, in the experiment on HT-29, the GI50 is > 100 µM (inactive).

Take `CSc1[nH]nc(N)c1C(=O)Nc1ccc(C)cc1`: the GI50 with UO-31 is 36.9 µM (inactive); in the experiment with HCT-15, 51.3 µM; in the experiment with 786-0, 49.4 µM (inactive); with M14, 83.9 µM (inactive); with NCI-H460 it was 60.1 µM (inactive); in the experiment with OVCAR-4, 46.2 µM (inactive). Moreover, the GI50 was 30.9 µM (inactive) in the experiment on MDA-MB-435; > 100 µM (inactive) with SF-539; > 100 µM (inactive) with NCI-H226; 26.7 µM (inactive) in the experiment with NCI-H522; > 100 µM (inactive) with SNB-19; 96.4 µM (inactive) in the experiment with SN12C. The GI50 in the experiment on A549 is 51.6 µM (inactive); with HCC 2998, 76.9 µM (inactive); in the experiment with HL-60, 39.3 µM (inactive); in the experiment on RXF 393, 97.9 µM (inactive); in the experiment with A498 it was 18.7 µM (inactive); with HT-29 it was > 100 µM (inactive).

Turning to `COc1nc2c(c(=O)n1C)N=C(c1ccccc1)[C@H](C(CC(=O)c1ccccc1)c1ccccc1)C(c1ccccc1)N2` (some centres not stated), the GI50 is 38.2 µM (inactive) with UO-31; 76.4 µM (inactive) with 786-0; 30.8 µM (inactive) in the experiment with KM12; > 100 µM (inactive) in the experiment on M14; 20.1 µM (inactive) in the experiment on OVCAR-4; > 100 µM (inactive) in the experiment with MDA-MB-435. Besides, the GI50 is > 100 µM (inactive) in the experiment on SF-539; 69.2 µM (inactive) in the experiment on NCI-H226; 25.9 µM (inactive) in the experiment on NCI-H522; > 100 µM (inactive) in the experiment on SNB-19; 44.7 µM (inactive) in the experiment on SN12C; 32.3 µM (inactive) in the experiment on A549. The GI50 in the experiment on HCC 2998 was 83.8 µM (inactive); in the experiment on HL-60, 38.4 µM (inactive); in the experiment on RXF 393 it was 28.5 µM (inactive); in the experiment with A498 it was > 100 µM (inactive); with OVCAR-8, 54.5 µM (inactive); in the experiment on HT-29, 44.7 µM (inactive).

With `O=C(Nc1ccc(Cl)cc1)NS(=O)(=O)c1coc2ccccc2c1=O`, the GI50 in the experiment with HCT-15 is > 10 µM; with 786-0 it was > 10 µM (inactive); in the experiment on KM12, > 10 µM (inactive); in the experiment with M14, > 10 µM (inactive); with NCI-H460, > 10 µM (inactive); in the experiment with OVCAR-4, > 10 µM (inactive). For the same compound, the GI50 in the experiment on MDA-MB-435, in the experiment on SF-539, in the experiment on NCI-H226, in the experiment on NCI-H522, in the experiment on SNB-19 and in the experiment on SN12C was > 10 µM (inactive) each time. Further, the GI50 in the experiment on A549, in the experiment on HCC 2998, with HL-60, in the experiment with RXF 393, in the experiment with A498 and with OVCAR-8 was > 10 µM (inactive) throughout. In addition, the GI50 in the experiment on HT-29 is > 10 µM (inactive).

As for `COc1ccc(N2CCN(Cc3c(C(C)=O)[n+]([O-])c4ccccc4[n+]3[O-])CC2)cc1`, the GI50 in the experiment on UO-31 is 64.6 µM (inactive); with HCT-15, 47.1 µM; in the experiment with 786-0 it was 53.5 µM (inactive); with KM12, 48.1 µM (inactive); in the experiment with M14, 45.5 µM (inactive); with NCI-H460, 87.5 µM (inactive). Also, the GI50 with OVCAR-4 is 38.3 µM (inactive); in the experiment on MDA-MB-435, 32.6 µM (inactive); in the experiment on NCI-H226, 29 µM (inactive); in the experiment with NCI-H522, 36.1 µM (inactive); in the experiment with SNB-19, 35.3 µM (inactive); with SN12C, 41.2 µM (inactive). The GI50 was 40.3 µM (inactive) in the experiment on A549; > 100 µM (inactive) in the experiment with HCC 2998; > 100 µM (inactive) in the experiment on HL-60; 17 µM (inactive) with RXF 393; 44.7 µM (inactive) in the experiment with A498; 28.7 µM (inactive) in the experiment on OVCAR-8. Also, in the experiment on HT-29, the GI50 was 45.6 µM (inactive).

Turning to `C=C1C(=O)O[C@H]2[C@@H](O)[C@H](C)CCC[C@]3(C)O[C@H]3CC[C@@]3(C)O[C@@H]3C[C@@H]12`, the GI50 in the experiment with UO-31 is 6.04 µM (inactive); in the experiment on HCT-15, 1.29 µM; with 786-0 it was 5.15 µM (inactive); in the experiment on KM12, 7.94 µM (inactive); with M14 it was 6.11 µM (inactive); with OVCAR-4, 2.66 µM (inactive). For the same compound, the GI50 in the experiment with MDA-MB-435 was 3.74 µM (inactive); in the experiment with SF-539, 6.81 µM (inactive); in the experiment on NCI-H226, 7.43 µM (inactive); in the experiment on NCI-H522 it was 1.12 µM (inactive); in the experiment on SNB-19, 11.9 µM (inactive); in the experiment with SN12C it was 5.74 µM (inactive). Further, the GI50 in the experiment with A549 was 9.33 µM (inactive); in the experiment with HCC 2998, 4.93 µM (inactive); in the experiment with HL-60, 0.897 µM (active); with RXF 393, 1.67 µM (inactive); in the experiment on A498, 7.33 µM (inactive); with OVCAR-8 it was 6.25 µM (inactive). Moreover, the GI50 with HT-29 is 5.66 µM (inactive).
